Measurements: the NIST ThermoML archive (doi:10.1021/je300673m)

Experiment: mn = molality of the nth substance listed, in mol/kg
Settings: 101 kPa, Liquid

O=P([O-])([O-])O.[K+].[K+] [dipotassium hydrogen phosphate] + O
viscosity [mPa·s]
Settings	288.15 K	298.15 K	308.15 K	318.15 K
m1 = 0.2	1.201	0.953	0.781	0.659
m1 = 0.4	1.329	1.057	0.867	0.73
m1 = 0.6	1.409	1.118	0.916	0.77
m1 = 0.8	1.534	1.217	0.997	0.833
